Experimental data: patent US6362163B1, “Parathyroid hormone-related peptide analogs” (The General Hospital Corporation, priority 1996, dated 2002)
Where no end group is shown, it is not given here.

T1: PTH/PTHrP receptor (Homo sapiens, UniProt Q03431)
T1 construct: expressed in transfected cells; host or cells: COS-7 cells, transient transfection, vector pcDNA-1
T1 sequence (Q03431 27-593): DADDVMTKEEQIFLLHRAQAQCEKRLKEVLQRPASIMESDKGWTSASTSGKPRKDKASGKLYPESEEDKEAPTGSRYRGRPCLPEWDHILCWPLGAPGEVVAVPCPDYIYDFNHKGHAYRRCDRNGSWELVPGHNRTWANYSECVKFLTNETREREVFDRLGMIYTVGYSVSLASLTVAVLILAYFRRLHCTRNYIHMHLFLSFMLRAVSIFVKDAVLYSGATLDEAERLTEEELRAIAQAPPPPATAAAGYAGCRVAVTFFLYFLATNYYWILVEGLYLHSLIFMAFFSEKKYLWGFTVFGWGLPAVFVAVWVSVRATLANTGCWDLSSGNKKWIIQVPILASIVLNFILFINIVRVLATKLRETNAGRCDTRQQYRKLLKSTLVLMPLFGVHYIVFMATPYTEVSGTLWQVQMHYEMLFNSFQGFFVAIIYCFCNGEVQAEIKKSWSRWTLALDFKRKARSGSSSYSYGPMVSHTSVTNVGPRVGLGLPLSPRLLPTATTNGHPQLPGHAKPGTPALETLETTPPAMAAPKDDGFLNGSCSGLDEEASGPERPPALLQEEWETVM

T2: human PTH/PTHrP receptor (human, UniProt Q03431 27-593)
T2 construct: whole, on cells; Transiently expressed on COS-7 cells
T2 sequence (looked up): T1 sequence (Q03431 27-593)

B1: Hybrid-3 hPTHrP-(1-23)/[Y34]hPTH-(24-34)NH2 (peptide)
peptide: AVSEHQLLHDKGKSIQDLRRRFFLRKKLQDVHNY-NH2
notes: Synthetic PTH/PTHrP hybrid ligand; also called PTHrP-(1-23)/PTH-(24-34)

Key:
PTH-2 receptor [1] = molecular target: T3, PTH-2 receptor (Homo sapiens, UniProt P49190); assay: Competition radioligand binding, COS-7 cells transfected with human PTH-2 receptor; settings: for Binding in words, PTH-2 receptor: competition with radioligand
T3 construct: expressed in transfected cells; host or cells: COS-7 cells, transient transfection, vector pcDNAI/Amp
Protocol: (§1) The cDNAs encoding the human PTH/PTHrP receptor (Schipani, E. et al., Endocrinology 132:2157-2165 (1993)) and the human PTH-2 receptor (Usdin, T. et al., J. Biol. Chem. 270:15455-15458 (1995)) were carried on the expression vectors pcDNA-1 and pcDNAI/Amp (InVitrogen, San Diego, Calif.), respectively. COS-7 cells were cultured and transfected as described previously (Lee, C. et al., Mol. Endocrinol. 9:1269-1278 (1995)). Cells were transfected in 24-well plates using plasmid DNA (200 ng/well) purified by cesium chloride/ethidium bromide gradient centrifugation. Ligand binding and cAMP accumulation assays were performed three days after transfection, by which time the cell density reached 500,000±100,000 cells/well.
(§2) Binding reactions were performed as described previously. Id. Each well (final volume: […]) contained 26 fmole of ^125I-[Nle^8,21,Tyr^34]rPTH(1-34)NH2 (100,000 CPM) and various amounts (0.4-300 pmole) of an unlabeled competitor ligand, both diluted in binding buffer (50 mM Tris-HCl, pH 7.7, 100 mM NaCl, 5 mM KCl, 2 mM CaCl, 5% heat-inactivated horse serum, 0.5% heat-inactivated fetal bovine serum). Incubations were at room temperature for 2 hours, except for experiments involving Scatchard analysis, which were performed at 4° C. for 6 hours. At the end of the binding reaction, the cells were rinsed 3 times with 0.5 ml of binding buffer, lysed with 0.5 ml of 5M NaOH, and the entire lysate was counted. Nonspecific binding of tracer (NSB), determined in wells containing 1 μM of [NleTyr^8,21,Tyr^34]rPTH-(1-34)NH2, was ˜1% of total counts added. Maximum specific binding (B0) was calculated as the total radioactivity bound to cells in the absence of unlabeled PTH ligand, minus NSB. […] For Scatchard analyses, homologous competition binding studies were performed that used ^125I-[-NleTyr^8,21,Tyr^34]rPTH-(1-34)NH2 (26 fmole/well) and varying amounts (1.2-300 pmol) of the same unlabeled ligand. Estimates of the number of receptors/cell derived from these studies assumed a single class of binding sites and a transfection efficiency of 20% (Abou-Samra, A. B. et al., Proc. Natl. Acad. Sci (USA) 89:2732-2736 (1992)).

PTH/PTHrP receptor [2] = molecular target: T1, PTH/PTHrP receptor; assay: Competition radioligand binding, COS-7 cells transfected with human PTH/PTHrP receptor; settings: for Binding affinity, fold weaker than PTH-(1-34): PTH/PTHrP receptor; for Binding in words, PTH/PTHrP receptor: competition with radioligand
Protocol: as §1, §2

PTH-2 receptor [3] = molecular target: T3, PTH-2 receptor; assay: Ligand-induced intracellular cAMP accumulation, COS-7 cells expressing human PTH-2 receptor; format: cell-based; settings: for cAMP agonist activity in words, PTH-2 receptor: COS-7 cells; for cAMP accumulation Maximum, PTH-2 receptor: highest level of cAMP attained, basal 5.4 ± 0.3 not subtracted, 1h at room temperature
Protocol: as §1
(§3) Transfected COS-7 cells were rinsed with […] of binding buffer. 200 μl of IBMX buffer (DMEM containing 2 mM IBMX, 1 mg/ml bovine serum albumin, 35 mM Hepes-NaOH, pH 7.4) and […] of binding buffer or binding buffer containing various amounts of a PTH or PTHrP analog were then added. The plates were incubated for 60 minutes at room temperature. The buffer was then withdrawn and the cells lysed by placing the plates on powdered dry ice and adding 0.5 ml of 50 mM HCl. The acid lysate was diluted 1/30 in dH2O, and an aliquot (5-50 μl) analyzed for cAMP content by radioimmunoassay. […] The cells were then incubated for 30 minutes at room temperature, and the resulting intracellular cAMP was measured by RIA. Data were analyzed using the AssayZap software (Elsevier Science Publishers BV, Cambridge, United Kingdom).

PTH/PTHrP receptor [4] = molecular target: T1, PTH/PTHrP receptor; assay: Ligand-induced intracellular cAMP accumulation, COS-7 cells expressing human PTH/PTHrP receptor; format: cell-based; settings: for cAMP accumulation Maximum, PTH/PTHrP receptor: highest level of cAMP attained, basal 4.6 ± 0.2 not subtracted, 1h at room temperature; for cAMP agonist activity in words, PTH/PTHrP receptor: COS-7 cells
Protocol: as §1, §3

human PTH-2 receptor = human PTH-2 receptor (human, UniProt P49190 25-550); assay: cell-based or functional assay
human PTH/PTHrP receptor = molecular target: T2, human PTH/PTHrP receptor; assay: radioligand competition (tracer 125I-[Nle8,21,Tyr34]rPTH-(1-34)NH2) on transfected COS-7 cells, RT 2 h
Protocol: Assays were performed for 2 hours at room temperature. Data are the mean (± s.e.m.) of IC$50$ values obtained from the number of experiments indicated (n).
Binding reactions were performed as described previously. Id. […] Incubations were at room temperature for 2 hours, except for experiments involving Scatchard analysis, which were performed at 4° C. for 6 hours. At the end of the binding reaction, the cells were rinsed 3 times with 0.5 ml of binding buffer, lysed with 0.5 ml of 5M NaOH, and the entire lysate was counted. […] Estimates of the number of receptors/cell derived from these studies assumed a single class of binding sites and a transfection efficiency of 20% (Abou-Samra, A. B. et al., *Proc. Natl. Acad. Sci* (*USA*) 89:2732–2736 (1992)).

[5] = COS-7 cells, radioligand 125I-[Nle8,21,Y34]rPTH-(1-34)NH2, 2 hours at room temperature, mean ± s.e.m.

Sequence of human PTH-2 receptor (P49190 25-550): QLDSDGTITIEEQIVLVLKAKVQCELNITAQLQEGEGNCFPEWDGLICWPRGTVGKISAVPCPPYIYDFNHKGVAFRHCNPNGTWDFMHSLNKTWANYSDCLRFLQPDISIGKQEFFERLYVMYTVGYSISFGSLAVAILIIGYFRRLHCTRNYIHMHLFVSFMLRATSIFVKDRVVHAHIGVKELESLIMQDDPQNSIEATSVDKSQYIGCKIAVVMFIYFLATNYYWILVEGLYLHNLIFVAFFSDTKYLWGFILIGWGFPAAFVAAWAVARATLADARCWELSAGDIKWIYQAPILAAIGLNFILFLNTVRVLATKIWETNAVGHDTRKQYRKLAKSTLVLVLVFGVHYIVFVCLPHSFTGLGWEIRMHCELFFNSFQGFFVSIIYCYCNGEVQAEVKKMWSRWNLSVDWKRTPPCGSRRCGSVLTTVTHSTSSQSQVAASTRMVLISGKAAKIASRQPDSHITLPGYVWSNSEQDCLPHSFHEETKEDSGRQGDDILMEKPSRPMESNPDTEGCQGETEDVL
T3 sequence (P49190 25-550): as above

Row | Molecule | cAMP accumulation Maximum, PTH-2 receptor (PTH-2 receptor [3]) [pmoles/well] | cAMP accumulation Maximum, PTH/PTHrP receptor (PTH/PTHrP receptor [4]) [pmoles/well] | cAMP accumulation EC50 (human PTH-2 receptor) [nM] | cAMP accumulation Maximum (human PTH-2 receptor) [pmoles/well] | further results
1 | LNSMERVEFLRKKLQDVHNY-NH2 [[F23, Y34]hPTH-(15-34)NH2] | – | – | – | – | IC50 (PTH-2 receptor [1]; [5]): > 10000 nM; IC50 (PTH/PTHrP receptor [2]; [5]): > 10000 nM
2 | [F23, Y34]hPTH-(1-34)NH2 | 50 ± 8 | 104 ± 16 | – | – | cAMP agonist activity in words, PTH-2 receptor (PTH-2 receptor [3]): nearly a full agonist; Reduction in binding potency compared to unsubstituted PTH-(1-34) (PTH-2 receptor [1]; PTH-2 receptor): 28 fold; Binding affinity, fold weaker than PTH-(1-34) (PTH/PTHrP receptor [2]): 2-3 fold
3 | [H5, F23, Y34]hPTH-(1-34)NH2 | 7.1 ± 0.9 | 110 ± 19 | – | – | –
4 | [H5, Y34]hPTH-(1-34)NH2 | 10 ± 1 | 116 ± 19 | – | – | cAMP agonist activity in words, PTH/PTHrP receptor (PTH/PTHrP receptor [4]): efficiently stimulated cAMP formation; Binding in words, PTH/PTHrP receptor (PTH/PTHrP receptor [2]; COS-7 cells): competed very poorly
5 | [Ile^5, Trp^23]PTHrP-(1-36) [[15, W23, Y36]hPTHrP-(1-36)NH2] | 65 ± 7 | 109 ± 10 | – | – | cAMP agonist activity in words, PTH-2 receptor (PTH-2 receptor [3]): as potent and efficacious as PTH-(1-34)
6 | [Ile^5]PTHrP-(1-36) [[15, Y36]hPTHrP-(1-36)NH2] | 80 ± 5 | – | – | – | cAMP agonist activity in words, PTH-2 receptor (PTH-2 receptor [3]): full agonist; cAMP EC50, fold higher than that of PTH-(1-34) (PTH-2 receptor [3]; PTH-2 receptor): 12 fold
7 | [Tyr^36]hPTHrP-(1-36)NH2 [[Y36]hPTHrP-(1-36)NH2, reference compound] | 11 ± 1 | – | – | – | cAMP agonist activity in words, PTH-2 receptor (PTH-2 receptor [3]): nearly inactive; Binding potency, fold weaker than PTH-(1-34) (PTH-2 receptor [1]; PTH-2 receptor): more than 100 fold; Binding in words, PTH-2 receptor (PTH-2 receptor [1]; COS-7 cells): bound poorly; cAMP agonist activity in words, PTH/PTHrP receptor (PTH/PTHrP receptor [4]): full and potent agonists; Binding affinity, fold weaker than PTH-(1-34) (PTH/PTHrP receptor [2]): six-fold weaker binding; Binding in words, PTH/PTHrP receptor (PTH/PTHrP receptor [2]; COS-7 cells): fully inhibited binding of the radioligand
8 | [Y36]hPTHrP-(15-36)NH2 | – | – | – | – | Binding in words, PTH-2 receptor (PTH-2 receptor [1]; COS-7 cells): competed weakly
9 | hPTH-(1-14)/[Y34]hPTHrP-(15-34)NH2 [Hybrid-2] | – | 123 ± 28 | – | – | –
10 | hPTHrP-(1-21)/[Y34]hPTH-(22-34)NH2 [Hybrid-4] | 6.7 ± 0.6 | 107 ± 17 | – | – | –
11 | hPTHrP-(1-23)/[Y34]hPTH-(24-34)NH2 [Hybrid 3] | 11 ± 1 | 95 ± 9 | – | – | –
12 | hpTHrP-(1-14)/[Y34]hPTH-(15-34)NH2 [Hybrid-1] | 5.3 ± 0.6 | 140 ± 17 | – | – | cAMP agonist activity in words, PTH-2 receptor (PTH-2 receptor [3]): weak activity
13 | hpTHrP-(1-18)/[Y34]hpTH-(19-34)NH2 [Hybrid-5] | 6.2 ± 0.4 | 133 ± 14 | – | – | –
14 | SVSEIQLMHNLGKHLNSMERVEWLRKKLQDVHNY-NH2 [[Tyr^34]hPTH-(1-34)NH2] | – | – | 0.6 | 81 | –
15 | SVSEHQLMHNLGKHLNSMERVEWLRKKLQDVHNY-NH2 [[H5, Y34]hPTH-(1-34)NH2] | – | – | > 1000 | 10 | –
16 | SVSEHQLMHNLGKHLNSMERVEFLRKKLQDVHNY-NH2 [[H5, F23, Y34]hPTH-(1-34)NH2] | – | – | > 1000 | 7.1 | –
17 | AVSEHQLLHDKGKSIQDLRRREWLRKKLQDVHNY-NH2 [Hybrid-4 hPTHrP-(1-21)/[Y34]hPTH-(22-34)NH2] | – | – | > 1000 | 6.7 | –
18 | B1 | – | – | > 1000 | 11 | IC50 (human PTH/PTHrP receptor): 1000 nM
19 | AVSEHQLLHDKGKSLNSMERVEWLRKKLQDVHNY-NH2 [Hybrid-1 hPTHrP-(1-14)/[Y34]hPTH-(15-34)NH2] | – | – | > 1000 | 5.3 | –
20 | AVSEIQLLHDKGKSIQDLRRRFFLHHLIAEIHTAEY-NH2 [[I5, Y36]hPTHrP-(1-36)NH2] | – | – | 7 | 80 | –
21 | IQDLRRRFWLHHLIAEIHTAEY-NH2 [[W23, Y36]hPTHrP-(15-36)NH2] | – | – | – | – | IC50 (human PTH/PTHrP receptor): > 10000 nM
22 | IQDLRRREWLHHLIAEIHTAEY-NH2 [[E22, W23, Y36]hPTHrP-(15-36)NH2] | – | – | – | – | IC50 (human PTH/PTHrP receptor): > 10000 nM
23 | IQDLRRRFFLHHLIAEIHTAEY-NH2 [[Y36]hPTHrP-(15-36)NH2] | – | – | – | – | IC50 (human PTH/PTHrP receptor): > 10000 nM
